Test systems include A549 NSCLC; CAKI-1 renal; CCRF-CEM leukemia; HCT-116 colon; HOP-92 NSCLC; MDA-MB-231 breast; MDA-MB-435; MOLT-4 leukemia; OVCAR-8 ovarian; SR leukemia.
Common to all, as to test: inhibition of tumour cell growth, NCI panel, 48 h

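Tested at 5 concentrations; 48 h exposure; 96-well plates; endpoints linearly interpolated, else capped at highest concentration. GI50: concentration for 50% inhibition of growth. Definition used: TGI = concentration required for complete inhibition of growth.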

The values that follow come from PubChem BioAssay (NCI).

For the compound `O=C(N/N=C/c1ccc(F)cc1)c1[nH]c2ccc(I)cc2c1-c1ccccc1`, the GI50 in the test with A549 NSCLC was 0.76 µM; in the test on CAKI-1 renal, 0.399 µM; in the test on CCRF-CEM leukemia, 0.383 µM; in the test on HCT-116 colon it was 0.325 µM; with HOP-92 NSCLC it was 12.5 µM; in the test with MDA-MB-231 breast, 1.34 µM. For the same compound, the GI50 is 0.162 µM in the test on MDA-MB-435, 1.24 µM in the test with MOLT-4 leukemia, 0.971 µM in the test on OVCAR-8 ovarian and 0.297 µM in the test on SR leukemia. The TGI in the test on A549 NSCLC was greater than 54.5 µM; in the test on CAKI-1 renal, 56.1 µM; in the test on HCT-116 colon, 1.35 µM; in the test on HOP-92 NSCLC, greater than 92.3 µM; in the test on MDA-MB-231 breast it was 6.82 µM; in the test with MDA-MB-435, 0.348 µM. In addition, the TGI in the test on MOLT-4 leukemia is greater than 36.9 µM; in the test with OVCAR-8 ovarian, greater than 51.2 µM; with SR leukemia it was 3.37 µM.
In the case of `N#C/C(=C(\O)C(=O)O)c1ccc(-c2cccc3ccccc23)cc1`, the TGI in the test on A549 NSCLC, in the test with CAKI-1 renal, with CCRF-CEM leukemia, in the test with HCT-116 colon, in the test with HOP-92 NSCLC and in the test with MDA-MB-231 breast was greater than 100 µM in each case. The TGI is greater than 100 µM in the test on MDA-MB-435, 12.2 µM in the test with MOLT-4 leukemia, greater than 100 µM in the test on OVCAR-8 ovarian and greater than 100 µM in the test on SR leukemia.
For the compound `CCCCc1cc(O)ccc1O`, the GI50 in the test on A549 NSCLC was 89.2 µM; in the test on CAKI-1 renal, 33 µM; in the test on CCRF-CEM leukemia, 2.79 µM; in the test on HCT-116 colon, 15.5 µM; in the test with HOP-92 NSCLC, 26.1 µM; in the test on MDA-MB-231 breast, 15.1 µM. In addition, the GI50 is 22 µM in the test on MDA-MB-435, 5.07 µM in the test with MOLT-4 leukemia, 28.2 µM with OVCAR-8 ovarian and 8.26 µM in the test with SR leukemia. The TGI in the test with A549 NSCLC is greater than 100 µM; with CAKI-1 renal it was greater than 100 µM; with CCRF-CEM leukemia it was 60.6 µM; with HCT-116 colon, 28.9 µM; in the test on HOP-92 NSCLC, greater than 100 µM; in the test with MDA-MB-231 breast, greater than 100 µM. Further, the TGI is 62.1 µM with MDA-MB-435, greater than 100 µM in the test on MOLT-4 leukemia, greater than 100 µM in the test with OVCAR-8 ovarian and greater than 100 µM in the test with SR leukemia.
Regarding `CCN(CC)C(=S)SSC1CCCCC1`, the GI50 with A549 NSCLC is 30.9 µM; in the test on CAKI-1 renal it was 11.9 µM; with CCRF-CEM leukemia, 5.72 µM; in the test with HCT-116 colon, 12.9 µM; with HOP-92 NSCLC it was 14.3 µM; with MDA-MB-231 breast, 17.3 µM. The GI50 was 15 µM with MDA-MB-435, 11.4 µM in the test on MOLT-4 leukemia, 15.8 µM in the test on OVCAR-8 ovarian and 0.0656 µM with SR leukemia. The TGI in the test with A549 NSCLC came to 82.6 µM; with CAKI-1 renal it was 25.2 µM; with CCRF-CEM leukemia, 58.6 µM; in the test on HCT-116 colon, 25.8 µM; in the test with HOP-92 NSCLC, 40 µM; in the test on MDA-MB-231 breast, 37.1 µM. Besides, the TGI worked out at 33.1 µM in the test on MDA-MB-435, 43.5 µM in the test on MOLT-4 leukemia, 34.9 µM in the test on OVCAR-8 ovarian and 4.36 µM with SR leukemia.
On to `Cc1ccc(-c2cc3nc(-c4ccccc4)nc(C(Cl)Cl)n3n2)cc1`, for which the GI50 in the test on A549 NSCLC is 0.927 µM; in the test on CAKI-1 renal, 0.668 µM; in the test on CCRF-CEM leukemia, greater than 50 µM; with HCT-116 colon, 0.689 µM; in the test with HOP-92 NSCLC it was 0.725 µM; in the test with MDA-MB-231 breast, 0.628 µM. The GI50 was 1.14 µM in the test with MDA-MB-435, greater than 50 µM in the test with MOLT-4 leukemia, 1.16 µM with OVCAR-8 ovarian and 3.73 µM in the test on SR leukemia. For the same compound, the TGI in the test on A549 NSCLC was 2.63 µM; in the test on CAKI-1 renal, 1.33 µM; in the test with CCRF-CEM leukemia it was greater than 50 µM; with HCT-116 colon, 1.61 µM; with HOP-92 NSCLC, 1.62 µM; with MDA-MB-231 breast it was 1.59 µM. The TGI with MDA-MB-435 is 2.71 µM; in the test on MOLT-4 leukemia it was greater than 50 µM; with OVCAR-8 ovarian, 4.74 µM; in the test on SR leukemia it was greater than 50 µM.
Consider `O=C1/C(=C\c2cccs2)Oc2ccccc21`, for which the TGI with A549 NSCLC is greater than 100 µM; in the test with CAKI-1 renal, greater than 100 µM; with CCRF-CEM leukemia, greater than 100 µM; in the test on HCT-116 colon, greater than 100 µM; in the test with HOP-92 NSCLC, 89 µM; in the test on MDA-MB-231 breast, greater than 100 µM. In addition, the TGI with MDA-MB-435, in the test with MOLT-4 leukemia, in the test with OVCAR-8 ovarian and with SR leukemia was greater than 100 µM each time.
`Cc1ccc2c(c1)sc(-c1ccc(N(C)C)cc1)[n+]2C`: the GI50 was 0.741 µM in the test with A549 NSCLC; 8.84 µM in the test with CAKI-1 renal; 1.98 µM with CCRF-CEM leukemia; 0.502 µM in the test on HCT-116 colon; 0.719 µM in the test with HOP-92 NSCLC; 2.75 µM with MDA-MB-231 breast. Also, the GI50 in the test with MDA-MB-435 was 0.879 µM; with MOLT-4 leukemia, 1.93 µM; in the test on OVCAR-8 ovarian, 1.41 µM; in the test on SR leukemia, 0.125 µM. In addition, the TGI in the test on CAKI-1 renal is greater than 56.2 µM; in the test with CCRF-CEM leukemia, greater than 62.5 µM; with HCT-116 colon, greater than 34.6 µM; in the test with HOP-92 NSCLC, 5.36 µM; with MDA-MB-231 breast, 21.1 µM; in the test on MDA-MB-435, 13 µM. Also, the results for the TGI in the test on MOLT-4 leukemia, with OVCAR-8 ovarian and with SR leukemia were greater than 48.7 µM, 34.8 µM and 19.4 µM, respectively.
Turning to `CC1(C)C(=O)/C(=C\c2ccco2)C[C@]2(C)[C@H]3CC=C4[C@@H]5C[C@](C)(C(=O)O)CC[C@]5(C)CC[C@@]4(C)[C@]3(C)CC[C@@H]12`, the GI50 in the test with A549 NSCLC was 4.21 µM; in the test on CAKI-1 renal, 10.6 µM; in the test with CCRF-CEM leukemia it was 5.9 µM; in the test on HCT-116 colon, 7.27 µM; with HOP-92 NSCLC, 3.83 µM; with MDA-MB-231 breast, 14.1 µM. Besides, the GI50 in the test with MDA-MB-435 is 12.1 µM; with MOLT-4 leukemia, 4.37 µM; with OVCAR-8 ovarian, 6 µM; with SR leukemia, 9.85 µM. The TGI was found to be 21.7 µM with A549 NSCLC; 28.2 µM in the test with CAKI-1 renal; 32.6 µM with CCRF-CEM leukemia; 26.1 µM with HCT-116 colon; 17 µM with HOP-92 NSCLC; 31.6 µM with MDA-MB-231 breast. For the same compound, the TGI with MDA-MB-435 was 30.3 µM; in the test with MOLT-4 leukemia it was 26.7 µM; in the test with OVCAR-8 ovarian, 42.4 µM; with SR leukemia, greater than 100 µM.
As for `Nc1ccc2c(c1)[O][Sn]([c]1ccccc1)([c]1ccccc1)[O]C2=O`, the GI50 in the test on A549 NSCLC is 4.61 µM; in the test on CAKI-1 renal it was 4.89 µM; in the test with CCRF-CEM leukemia, 1.92 µM; in the test with HCT-116 colon, 7.97 µM; in the test with HOP-92 NSCLC it was 2.59 µM; in the test with MDA-MB-231 breast, 5.11 µM. Moreover, the GI50 was 6.78 µM in the test on MDA-MB-435, 5.01 µM in the test with MOLT-4 leukemia, 13.2 µM with OVCAR-8 ovarian and 3.01 µM in the test with SR leukemia. The TGI amounted to 15.9 µM in the test with A549 NSCLC; 10.5 µM in the test with CAKI-1 renal; 7.76 µM with CCRF-CEM leukemia; 15.7 µM in the test on HCT-116 colon; 7.11 µM in the test on HOP-92 NSCLC; 11.6 µM with MDA-MB-231 breast. In addition, the TGI with MDA-MB-435 was 17.3 µM; with MOLT-4 leukemia, 29.7 µM; with OVCAR-8 ovarian, 28.2 µM; in the test with SR leukemia it was greater than 30.4 µM.
